In brackets after ≈: the same amount, converted by molar mass.
Columns and labels:
Assay in all cases: in vitro antibacterial evaluation, MIC by broth dilution
Type in all cases: cell-based
Staphylococcus sp. = conditions: broth dilution, 18 hours at 35° C.
Outline: (§1)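 MIC = lowest antibiotic concentration preventing visible growth; inoculum 5×10^5 CFU/mL; drug range 64-0.06 μg/mL; Muller-Hinton II […]; NCCLS M7-A2 guidance.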

Escherichia coli = conditions: 18 hours at 35° C.
Outline: as §1

Enterococcus sp. = conditions: broth dilution, 18 hours at 35° C.
Outline: as §1

Streptococcus sp. = conditions: broth dilution, 18 hours at 35° C.
Outline: as §1

MIC Staphylococcus aureus (ATCC 29213) (Staphylococcus sp.): 2 µg/mL (≈ 1.43 µM) | MIC Staphylococcus aureus (GC 1131) (Staphylococcus sp.): 2 µg/mL (≈ 1.43 µM) | MIC Staphylococcus aureus (GC 3051) (Staphylococcus sp.): 2 µg/mL (≈ 1.43 µM) | MIC Staphylococcus aureus (GC 3053) (Staphylococcus sp.): 2 µg/mL (≈ 1.43 µM) | MIC Staphylococcus aureus (GC 4541) (Staphylococcus sp.): 2 µg/mL (≈ 1.43 µM) | MIC Staphylococcus aureus (GC 4542) (Staphylococcus sp.): 2 µg/mL (≈ 1.43 µM) | MIC Staphylococcus aureus (GC 4544) (Staphylococcus sp.): 1 µg/mL (≈ 0.713 µM) | MIC Staphylococcus aureus (GC 4545) (Staphylococcus sp.): 2 µg/mL (≈ 1.43 µM) | MIC Staphylococcus aureus (GC 1131) (Staphylococcus sp.; inoculum 5×10^5 CFU/mL, strain GC 1131): 2 µg/mL (≈ 1.43 µM) | MIC Staphylococcus aureus (ATCC 29213) (Staphylococcus sp.; strain ATCC 29213): 2 µg/mL (≈ 1.43 µM) | MIC Staphylococcus aureus (GC 3051) (Staphylococcus sp.; strain GC 3051): 2 µg/mL (≈ 1.43 µM) | MIC Staphylococcus aureus (GC 3053) (Staphylococcus sp.; strain GC 3053): 2 µg/mL (≈ 1.43 µM) | MIC Staphylococcus aureus (GC 4541) (Staphylococcus sp.; strain GC 4541): 2 µg/mL (≈ 1.43 µM) | MIC Staphylococcus aureus (GC 4542) (Staphylococcus sp.; strain GC 4542): 2 µg/mL (≈ 1.43 µM) | MIC Staphylococcus aureus-SMITH (GC 4543) (Staphylococcus sp.; strain GC 4543): 2 µg/mL (≈ 1.43 µM) | MIC Staphylococcus aureus (GC 4544) (Staphylococcus sp.; strain GC 4544): 1 µg/mL (≈ 0.713 µM) | MIC Staphylococcus aureus (GC 4545) (Staphylococcus sp.; strain GC 4545): 2 µg/mL (≈ 1.43 µM) | MIC Coagulase Negative Staphylococcus (GC 4547) (Staphylococcus sp.; strain GC 4547): 2 µg/mL (≈ 1.43 µM) | MIC Coagulase Negative Staphylococcus (GC 4548) (Staphylococcus sp.; strain GC 4548): 1 µg/mL (≈ 0.713 µM) | MIC Coagulase Negative Staphylococcus (GC 4549) (Staphylococcus sp.; strain GC 4549): 1 µg/mL (≈ 0.713 µM) | MIC Coagulase Negative Staphylococcus (GC 4551) (Staphylococcus sp.; strain GC 4551): 2 µg/mL (≈ 1.43 µM) | MIC Coagulase Negative Staphylococcus (GC 6257) (Staphylococcus sp.; strain GC 6257): 1 µg/mL (≈ 0.713 µM) | MIC Staphylococcus aureus-SMITH (GC 4543) (Staphylococcus sp.; strain SMITH GC 4543): 2 µg/mL (≈ 1.43 µM) | MIC Escherichia coli (ATCC 25922) (Escherichia coli; strain ATCC 25922): 32 µg/mL (≈ 22.8 µM) | MIC Escherichia coli (GC 4559) (Escherichia coli; strain GC 4559): 32 µg/mL (≈ 22.8 µM) | MIC Escherichia coli (GC 4560) (Escherichia coli; strain GC 4560): 2 µg/mL (≈ 1.43 µM) | MIC Enterococcus avium (GC 4558) (Enterococcus sp.; Enterococcus avium (GC 4558)): 2 µg/mL (≈ 1.43 µM) | MIC Enterococcus faecalis (ATCC 29212) (Enterococcus sp.; Enterococcus faecalis (ATCC 29212)): 2 µg/mL (≈ 1.43 µM) | MIC Enterococcus faecalis (GC 2242) (Enterococcus sp.; Enterococcus faecalis (GC 2242)): 2 µg/mL (≈ 1.43 µM) | MIC Enterococcus faecalis (GC 2691) (Enterococcus sp.; Enterococcus faecalis (GC 2691)): 2 µg/mL (≈ 1.43 µM) | MIC Enterococcus faecalis (GC 3059) (Enterococcus sp.; Enterococcus faecalis (GC 3059)): 2 µg/mL (≈ 1.43 µM) | MIC Enterococcus faecalis (GC 4552) (Enterococcus sp.; Enterococcus faecalis (GC 4552)): 2 µg/mL (≈ 1.43 µM) | MIC Enterococcus faecalis (GC 4553) (Enterococcus sp.; Enterococcus faecalis (GC 4553)): 4 µg/mL (≈ 2.85 µM) | MIC Enterococcus faecalis (GC 4554) (Enterococcus sp.; Enterococcus faecalis (GC 4554)): 2 µg/mL (≈ 1.43 µM) | MIC Enterococcus faecalis (GC 6189) (Enterococcus sp.; Enterococcus faecalis (GC 6189)): 2 µg/mL (≈ 1.43 µM) | MIC Enterococcus faecium (GC 2243) (Enterococcus sp.; Enterococcus faecium (GC 2243)): 2 µg/mL (≈ 1.43 µM) | MIC Enterococcus faecium (GC 4556) (Enterococcus sp.; Enterococcus faecium (GC 4556)): 2 µg/mL (≈ 1.43 µM) | MIC Enterococcus faecium (GC 4557) (Enterococcus sp.; Enterococcus faecium (GC 4557)): 4 µg/mL (≈ 2.85 µM) | MIC Enterococcus faecalis (ATCC 29212) (Enterococcus sp.; strain ATCC 29212): 2 µg/mL (≈ 1.43 µM) | MIC Enterococcus faecalis (GC 2242) (Enterococcus sp.; strain GC 2242): 2 µg/mL (≈ 1.43 µM) | MIC Enterococcus faecium (GC 2243) (Enterococcus sp.; strain GC 2243): 2 µg/mL (≈ 1.43 µM) | MIC Enterococcus faecalis (GC 2691) (Enterococcus sp.; strain GC 2691): 2 µg/mL (≈ 1.43 µM) | MIC Enterococcus faecalis (GC 3059) (Enterococcus sp.; strain GC 3059): 2 µg/mL (≈ 1.43 µM) | MIC Enterococcus faecalis (GC 4552) (Enterococcus sp.; strain GC 4552): 2 µg/mL (≈ 1.43 µM) | MIC Enterococcus faecalis (GC 4553) (Enterococcus sp.; strain GC 4553): 4 µg/mL (≈ 2.85 µM) | MIC Enterococcus faecalis (GC 4554) (Enterococcus sp.; strain GC 4554): 2 µg/mL (≈ 1.43 µM) | MIC Enterococcus faecium (GC 4556) (Enterococcus sp.; strain GC 4556): 2 µg/mL (≈ 1.43 µM) | MIC Enterococcus faecium (GC 4557) (Enterococcus sp.; strain GC 4557): 4 µg/mL (≈ 2.85 µM) | MIC Enterococcus avium (GC 4558) (Enterococcus sp.; strain GC 4558): 2 µg/mL (≈ 1.43 µM) | MIC Enterococcus faecalis (GC 6189) (Enterococcus sp.; strain GC 6189): 2 µg/mL (≈ 1.43 µM) | MIC Streptococcus agalactiae (GC 4564) (Streptococcus sp.; Streptococcus agalactiae (GC 4564)): 0.12 µg/mL (≈ 0.0855 µM) | MIC Streptococcus pneumoniae (ATCC 6301) (Streptococcus sp.; Streptococcus pneumoniae (ATCC 6301)): <0.06 µg/mL | MIC Streptococcus pneumoniae (GC 1894) (Streptococcus sp.; Streptococcus pneumoniae (GC 1894)): <0.06 µg/mL | MIC Streptococcus pneumoniae (GC 4565) (Streptococcus sp.; Streptococcus pneumoniae (GC 4565)): 0.12 µg/mL (≈ 0.0855 µM) | MIC Streptococcus pyogenes (GC 4563) (Streptococcus sp.; Streptococcus pyogenes (GC 4563)): <0.06 µg/mL | MIC Streptococcus pneumoniae (ATCC 6301) (Streptococcus sp.; strain ATCC 6301): <0.06 µg/mL | MIC Streptococcus pneumoniae (GC 1894) (Streptococcus sp.; strain GC 1894): <0.06 µg/mL | MIC Streptococcus pyogenes (GC 4563) (Streptococcus sp.; strain GC 4563): <0.06 µg/mL | MIC Streptococcus agalactiae (GC 4564) (Streptococcus sp.; strain GC 4564): 0.12 µg/mL (≈ 0.0855 µM) | MIC Streptococcus pneumoniae (GC 4565) (Streptococcus sp.; strain GC 4565): 0.12 µg/mL (≈ 0.0855 µM)
Compound: CC(c1ccccc1)C1NC(=O)CNC(=O)C(CO)NC(=O)C(C(O)C2CNC(=N)N2C2OC(CO)C(O)C(O)C2O)NC(=O)C(C(O)C2CNC(=N)N2)NC(=O)C(Cc2ccc(OC3OC(CO)C(OC4OC5COC(CC6CCCCC6)OC5C(O)C4O)C(O)C3O)cc2)NC1=O (stereo not shown) [Example 122]
MIC Staphylococcus haemolyticus (GC 4546) (Staphylococcus sp.; strain GC 4546): 2 µg/mL (≈ 1.43 µM)
